The cell lines below were run with O=C(O)C(Cc1ccccc1[N+](=O)[O-])=NNc1nc(-c2ccc(Cl)c(Cl)c2)cs1 (mixture of isomers) [4EGI-1] + CS(=O)(=O)N1CCN(Cc2cc3nc(-c4cccc5[nH]ncc45)nc(N4CCOCC4)c3s2)CC1 [Pictilisib] (partner 1 µM) (assay: relative viability (nuclei count vs DMSO), 5 days (fraction); higher = more cells survive). Settings: first compound 0.5 µM.
Outline: (§1)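 Dosing by pin tool came one day after lung cancer cell lines were seeded in 1536-well plates, using either one drug or a fixed anchor-drug dose plus five library-drug doses (not always all listed) in √10 steps. After 5 days, nuclei were counted on 4× images. Relative viability is treated-well nuclei count divided by vehicle-well nuclei count, and values are medians of duplicate plates.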

Cell Line	relative viability
201T	0.702
A549	0.456
A-427	0.855
ABC-1	0.898
BEN	0.594
COR-L23	0.96
COR-L 105	0.464
Calu-6	0.969
ChaGo-K-1	0.612
EBC-1	0.519
EKVX	0.443
EMC-BAC-2	0.642
EPLC-272H	0.338
H3255	0.578
HARA	0.48
HCC-15	0.921
HCC-44	0.75
HCC-78	0.206

Cell Line	relative viability
HCC-366	0.222
HCC-827	1.03
HOP-62	0.576
IA-LM	0.349
LC-2-ad	0.655
NCI-H520	0.332
NCI-H661	0.368
NCI-H1299	0.863
NCI-H1563	0.637
NCI-H1650	0.671
NCI-H1703	0.266
NCI-H2009	1.08
NCI-H2023	0.275
NCI-H2228	0.444
SK-LU-1	0.628
SK-MES-1	0.458
SW 1573	0.549
UMC-11	1.01

Same assay, conditions: first compound 1.581 µM

Cell Line	relative viability
201T	0.655
A549	0.454
A-427	0.409
ABC-1	0.647
BEN	0.656
COR-L23	0.549
COR-L 105	0.356
Calu-6	0.937
EBC-1	0.405
EKVX	0.371
EMC-BAC-2	0.492
EPLC-272H	0.306
H3255	0.431
HARA	0.428
HCC-15	0.705
HCC-44	0.515

Cell Line	relative viability
HCC-78	0.257
HCC-827	0.993
IA-LM	0.317
LC-2-ad	0.419
NCI-H520	0.315
NCI-H661	0.344
NCI-H1299	0.824
NCI-H1563	0.662
NCI-H1703	0.253
NCI-H2009	0.772
NCI-H2228	0.403
SK-LU-1	0.648
SK-MES-1	0.349
SW 1573	0.562
UMC-11	0.989

Same assay, conditions: first compound 5 µM

Cell Line	relative viability
201T	0.707
A549	0.603
A-427	0.705
ABC-1	0.724
BEN	0.667
CAL-12T	0.431
COR-L23	0.827
COR-L 105	0.447
Calu-6	0.825
ChaGo-K-1	0.759
EBC-1	0.416
EKVX	0.442
EMC-BAC-2	0.579
EPLC-272H	0.369
H3255	0.516
HARA	0.46
HCC-15	0.755
HCC-44	0.653
HCC-78	0.153

Cell Line	relative viability
HCC-366	0.119
HCC-827	0.958
HOP-62	0.709
IA-LM	0.243
LC-2-ad	0.485
NCI-H520	0.378
NCI-H661	0.391
NCI-H1299	1.03
NCI-H1563	0.622
NCI-H1650	0.659
NCI-H1703	0.238
NCI-H2009	1.06
NCI-H2023	0.207
NCI-H2228	0.464
SK-LU-1	0.618
SK-MES-1	0.338
SW 1573	0.461
UMC-11	0.896

Same assay, conditions: first compound 15.81 µM

Cell Line	relative viability
201T	0.638
A549	0.433
A-427	0.589
ABC-1	0.359
BEN	0.51
CAL-12T	0.347
COR-L23	0.491
COR-L 105	0.342
Calu-6	0.79
ChaGo-K-1	0.453
EBC-1	0.269
EKVX	0.262
EMC-BAC-2	0.514
EPLC-272H	0.293
H3255	0.361
HARA	0.375
HCC-15	0.728
HCC-44	0.527
HCC-78	0.191

Cell Line	relative viability
HCC-366	0.0976
HCC-827	0.298
HOP-62	0.546
IA-LM	0.0957
LC-2-ad	0.214
NCI-H520	0.367
NCI-H661	0.336
NCI-H1299	0.732
NCI-H1563	0.662
NCI-H1650	0.351
NCI-H1703	0.222
NCI-H2009	0.843
NCI-H2023	0.177
NCI-H2228	0.335
SK-LU-1	0.541
SK-MES-1	0.303
SW 1573	0.445
UMC-11	0.87

Same assay, conditions: first compound 50 µM

Cell Line	relative viability
201T	0.603
A549	0.0907
A-427	0.364
ABC-1	0.268
BEN	0.46
CAL-12T	0.225
COR-L23	0.135
COR-L 105	0.325
Calu-6	0.198
ChaGo-K-1	0.219
EBC-1	0.19
EKVX	0.405
EMC-BAC-2	0.502
EPLC-272H	0.205
H3255	0.453
HARA	0.266
HCC-15	0.574
HCC-44	0.299
HCC-78	0.234

Cell Line	relative viability
HCC-366	0.0789
HCC-827	0.66
HOP-62	0.256
IA-LM	0.08
LC-2-ad	0.142
NCI-H520	0.162
NCI-H661	0.231
NCI-H1299	0.163
NCI-H1563	0.521
NCI-H1650	0.235
NCI-H1703	0.255
NCI-H2009	0.169
NCI-H2023	0.0916
NCI-H2228	0.298
SK-LU-1	0.416
SK-MES-1	0.347
SW 1573	0.47
UMC-11	0.587

The cell lines below were run with O=C(O)C(Cc1ccccc1[N+](=O)[O-])=NNc1nc(-c2ccc(Cl)c(Cl)c2)cs1 (mixture of isomers) [4EGI-1] + Nc1ncn([C@H]2C[C@H](O)[C@@H](CO)O2)c(=O)n1 [Decitabine] (partner 2 µM) in the same assay as above. Settings: first compound 0.5 µM.
Outline: as §1

Cell Line	relative viability
201T	0.871
A549	0.345
A-427	0.575
ABC-1	1.28
BEN	0.758
COR-L23	0.473
COR-L 105	0.681
ChaGo-K-1	0.538
EKVX	0.386
EMC-BAC-2	1.21
EPLC-272H	0.45
H3255	0.684
HARA	0.446
HCC-15	0.89
HCC-44	0.964
HCC-78	0.768
HCC-366	0.364

Cell Line	relative viability
HCC-827	0.263
HOP-62	0.272
LC-2-ad	0.876
NCI-H520	0.568
NCI-H522	0.666
NCI-H661	0.582
NCI-H1648	0.462
NCI-H1650	0.37
NCI-H2009	0.419
NCI-H2023	0.242
NCI-H2342	0.757
SK-LU-1	0.682
SK-MES-1	0.384
SW 900	0.447
SW 1573	0.623
UMC-11	0.731

Same assay, conditions: first compound 1.581 µM

Cell Line	relative viability
201T	0.859
A549	0.377
BEN	0.635
COR-L23	0.343
COR-L 105	0.558
ChaGo-K-1	0.511
HARA	0.511
HCC-15	0.723
HCC-44	0.905
HCC-366	0.29
HCC-827	0.31
HOP-62	0.199
LC-2-ad	0.859
NCI-H520	0.499
NCI-H522	0.63
NCI-H661	0.568
NCI-H1648	0.501
NCI-H2009	0.359
NCI-H2023	0.173
NCI-H2342	0.704
SK-LU-1	0.65
SK-MES-1	0.323
SW 900	0.406
SW 1573	0.427
UMC-11	0.609

Same assay, conditions: first compound 5 µM

Cell Line	relative viability
201T	0.886
A549	0.259
A-427	0.592
ABC-1	1.12
BEN	0.78
COR-L23	0.474
COR-L 105	0.587
ChaGo-K-1	0.523
EKVX	0.371
EMC-BAC-2	0.972
EPLC-272H	0.359
H3255	0.638
HARA	0.692
HCC-15	0.675
HCC-44	0.936
HCC-78	0.729
HCC-366	0.549

Cell Line	relative viability
HCC-827	0.344
HOP-62	0.215
LC-2-ad	0.742
NCI-H520	0.499
NCI-H522	0.693
NCI-H661	0.519
NCI-H1648	0.518
NCI-H1650	0.421
NCI-H2009	0.389
NCI-H2023	0.221
NCI-H2342	0.742
SK-LU-1	0.653
SK-MES-1	0.362
SW 900	0.464
SW 1573	0.495
UMC-11	0.685

Same assay, conditions: first compound 15.81 µM

Cell Line	relative viability
201T	0.826
A549	0.177
A-427	0.513
ABC-1	1.23
BEN	0.578
COR-L23	0.291
COR-L 105	0.472
ChaGo-K-1	0.479
EKVX	0.276
EMC-BAC-2	0.904
EPLC-272H	0.31
HARA	0.366
HCC-15	0.527
HCC-44	0.924
HCC-78	0.621
HCC-366	0.256

Cell Line	relative viability
HOP-62	0.202
LC-2-ad	0.587
NCI-H520	0.562
NCI-H522	0.679
NCI-H661	0.385
NCI-H1648	0.537
NCI-H1650	0.256
NCI-H2009	0.292
NCI-H2023	0.128
NCI-H2342	0.737
SK-LU-1	0.48
SK-MES-1	0.285
SW 900	0.396
SW 1573	0.254
UMC-11	0.624

Same assay, conditions: first compound 50 µM

Cell Line	relative viability
201T	0.615
A549	0.0347
A-427	0.336
ABC-1	0.482
BEN	0.522
COR-L23	0.171
COR-L 105	0.523
ChaGo-K-1	0.352
EKVX	0.319
EMC-BAC-2	0.436
EPLC-272H	0.305
H3255	0.594
HARA	0.167
HCC-15	0.217
HCC-44	0.432
HCC-78	0.725
HCC-366	0.0833
